From US7838674B2, “Tetracyclic lactame derivatives” (Novartis AG, priority 2007, dated 2010)
pIC50: −log10 of the molar value. Where a name gives a salt, the structure may show the parent alone.

What follows are compounds tested against T1, MAPKAPK2 enzyme (HIS-MK2, Invitrogen PV4019) (Homo sapiens, UniProt P49137) (assay: Alternative MAPKAPK2 assay (Caliper microfluidic mobility shift, HSP27-peptide)). Settings: HIS-MK2 0.013 nM, ATP 10 μM, 60 min at 30° C.
T1 construct: His; purchased Invitrogen PV4019
T1 sequence (P49137 whole entry): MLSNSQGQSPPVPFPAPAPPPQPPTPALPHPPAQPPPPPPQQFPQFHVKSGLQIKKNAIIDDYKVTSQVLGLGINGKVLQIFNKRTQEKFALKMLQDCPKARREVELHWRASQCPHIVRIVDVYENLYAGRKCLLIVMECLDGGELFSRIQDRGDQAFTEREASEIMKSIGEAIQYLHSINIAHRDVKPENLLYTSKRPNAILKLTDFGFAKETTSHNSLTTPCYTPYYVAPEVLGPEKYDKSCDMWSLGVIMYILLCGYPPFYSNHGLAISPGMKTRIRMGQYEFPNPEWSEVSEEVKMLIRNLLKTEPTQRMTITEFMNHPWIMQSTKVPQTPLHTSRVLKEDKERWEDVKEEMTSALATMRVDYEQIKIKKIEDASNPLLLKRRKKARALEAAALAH
Type: biochemical

Point of comparison: `Cc1ccc(-c2cc3c(cn2)CCc2c-3[nH]c3c2C(=O)NC2(CC2)C3)c(F)n1` [Example 158, 2-(1-Amino-cyclopropylmethyl)-8-(2-fluoro-6-methyl-pyridin-3-yl)-4,5-dihydro-1H-pyrrolo[2,3-f]isoquinoline-3-carboxylic acid lactam], pIC50 7.29. Against it:
- O=C(NCc1ccccc1)c1ccc(-c2cc3c(cn2)CCc2c-3[nH]c3c2C(=O)NC2(CC2)C3)o1 [Example 282, 5-(9,9-Spirocyclopropyl-7-oxo-6,7,8,9,10,11-hexahydro-5H-3,8,11-triaza-benzo[a]fluoren-2-yl)-furan-2-carboxylic acid benzylamide] — 0.39 log units higher, 7.68
- Cn1c2c(c3c1-c1cc(-c4cccc(F)c4)ncc1CC3)C(=O)NC1(CNC1)C2 [Example 133, 2-(3-Amino-azetidin-3-ylmethyl)-8-(3-fluoro-phenyl)-1-methyl-4,5-dihydro-1H-pyrrolo[2,3-f]isoquinoline-3-carboxylic acid lactam hydrochloride] — 0.45 log units higher, 7.74
- COc1ccc(-c2cc3c(cn2)CCc2c-3[nH]c3c2C(=O)NC2(CC2)C32CC2)cn1 [Example 199, 2-(1′-Amino-bicyclopropyl-1-yl)-8-[6-methoxy-pyridin-3-yl]-4,5-dihydro-1H-pyrrolo[2,3-f]isoquinoline-3-carboxylic acid lactam] — 0.35 log units higher, 7.64
- Cn1c2c(c3c1C1(CNC1)CNC3=O)CCc1cnc(-c3ccc(F)nc3)cc1-2 [Example 162, 2-(3-Aminomethyl-azetidin-3-yl)-8-(6-fluoro-pyridin-3-yl)-1-methyl-4,5-dihydro-1H-pyrrolo[2,3-f]isoquinoline-3-carboxylic acid lactam hydrochloride] — 0.41 log units higher, 7.70
- COc1ccc(-c2cc3c(cn2)CCc2c-3[nH]c3c2C(=O)N[C@@H]2CC[C@H]32)cc1 (racemic) [Example 50, (+)-2-(2-Amino-cyclobutyl)-8-(4-methoxy-phenyl)-4,5-dihydro-1H-pyrrolo[2,3-f]isoquinoline-3-carboxylic acid lactam] — 0.39 log units higher, 7.68
- N#Cc1cc(-c2cc3c(cn2)CCc2c-3[nH]c3c2C(=O)NCC32CC2)ccc1CN1CCOCC1 [Example 319, 2-Morpholin-4-ylmethyl-10-spirocyclopropyl-5-(7-oxo-6,7,8,9,10,11-hexahydro-5H-3,8,11-triaza-benzo[a]fluoren-2-yl)-benzonitrile] — within 0.2 log units, 7.42
- CCN1CC2(CNC(=O)c3c2[nH]c2c3CCc3cnc(-c4cccc(C(=O)NCc5ccccc5)c4)cc3-2)C1 [Example 263, 2-(3-Aminomethyl-1-ethyl-azetidin-3-yl)-8-(3-benzylcarbamoyl-phenyl)-4,5-dihydro-1H-pyrrolo[2,3-f]isoquinoline-3-carboxylic acid lactam] — higher, > 8.52
- COc1ccc(-c2cc3c(cn2)CCc2c4c(n(C)c2-3)C2(CNC2)CNC4=O)cc1 [Example 163, 2-(3-Aminomethyl-azetidin-3-yl)-8-(4-methoxy-phenyl)-1-methyl-4,5-dihydro-1H-pyrrolo[2,3-f]isoquinoline-3-carboxylic acid lactam hydrochloride] — 0.93 log units higher, 8.22
- O=C1NC2(CC2)C2(CNC2)c2[nH]c3c(c21)CCc1cnc(-c2cccc(F)c2)cc1-3 [Example 180, 2-[3-(1-Amino-cyclopropyl)-azetidin-3-yl]-8-(3-fluoro-phenyl)-4,5-dihydro-1H-pyrrolo[2,3-f]isoquinoline-3-carboxylic acid lactam hydrochloride] — higher, > 8.52
- COc1ncc(-c2cc3c(cn2)CCc2c-3[nH]c3c2C(=O)NC2(CC2)C32CC2)cc1F [Example 194, 2-(1′-Amino-bicyclopropyl-1-yl)-8-(5-fluoro-6-methoxy-pyridin-3-yl)-4,5-dihydro-1H-pyrrolo[2,3-f]isoquinoline-3-carboxylic acid lactam] — within 0.2 log units, 7.38
- Cn1c2c(c3c1-c1nc(-c4cccc(C#N)c4)ncc1CC3)C(=O)NC1(CNC1)C2 [Example 287, 2-(3-Amino-azetidin-3-ylmethyl)-8-(3-cyano-phenyl)-1-methyl-4,5-dihydro-1H-1,7,9-triaza-cyclopenta[a]naphthalene-3-carboxylic acid lactam hydrochloride] — 0.31 log units higher, 7.60
